The subject of data set [1] is PC-3 prostate adenocarcinoma cell line. Put plainly: MTT cell viability assay, PC-3. The class given is cell-based, human. As to the method: (§1) Caco-2, MCF-7, PC-3, and NHDF cell lines were obtained from the American Type Culture Collection (ATCC) and maintained in 75 cm^2 culture flasks in a humidified atmosphere at 37 °C with 5% carbon dioxide using a LEEC Culture Safe Precision CO2 Incubator. The culture media was renewed every two to three days. The NHDF cell line was cultured in Roswell Park Memorial Institute (RPMI) medium supplemented with 10% of inactivated fetal bovine serum (FBS), 2 mM of L-glutamine, 10 mM of 4-(2-hydroxyethyl)-1-piperazineethanesulfonic acid (HEPES), 1 mM of sodium pyruvate, and 1% of antibiotic/antimycotic mixture (Ab; 10,000 U/mL of penicillin G, […] of streptomycin, and 25 µg/mL of amphotericin B). The PC-3 cell line was also cultured in RPMI 1640 medium supplemented with 10% inactivated FBS and 1% of an antibiotic mixture (Sp; 10,000 U/mL of penicillin G and […] of streptomycin). The Caco-2 and MCF-7 cell lines were grown in Dulbecco’s Modified Eagle Medium (DMEM). Caco-2 was supplemented with 20% of inactivated FBS and 1% of Sp. On the other hand, the MCF-7 medium was complemented with 10% of inactivated FBS and 1% of Ab. All manipulations were performed in a Labculture Class II A2 Biological Safety Cabinet.
(§2) After the near confluency of cultures, cells were detached with a solution of 0.125 g/L trypsin and 0.02 g/L ethylenediaminetetracetic acid (EDTA), counted using the trypan blue method, resuspended, and seeded in 96-well culture plates (100 µL, 2 × 10^4 cells/mL). Following 48 h of adherence, cells were treated with the test solutions and incubated for 72 h. This incubation, as well as the solution manipulations, were performed in an environment protected from light. After the incubation, the medium was replaced with a fresh incomplete culture medium (without FBS and Ab or Sp) and MTT solution (5 mg/mL in phosphate buffer saline (PBS)). After additional incubation for 4 h, the MTT medium was removed, formazan crystals were dissolved in DMSO, and the optical density of each well was measured at 570 nm using a microplate spectrophotometer Bio-Rad xMark. Untreated cells were used as a negative control and 5-FU as the positive control. The results were expressed as the relative cell proliferation relative to the negative control cells. […] To determine the IC50 values, Caco-2, MCF-7, PC-3, and NHDF cells were exposed to increasing concentrations between 0.001 and 100 μM.
For orientation: Tetrazolium assays rely on reduction of a dye to a coloured formazan, in cell work by metabolically active cells.

The subject of another data set is NHDF cell line. Nature of the data set: Photocytotoxicity evaluation (MTT after white LED light irradiation). It is filed as cell-based, human. To be noted: 30 min white LED light versus dark. As to the method: The photocytotoxicity evaluation was performed on the NHDF cell line similar to the above MTT cell viability assay. In contrast to 72 h continuous incubation in the dark with test solutions, cells were subjected to 30 min of constant irradiation with white light from an RGBW LED projector (220–240 V and 30 W, Luxtar) after 48 h of incubation. This light source emits radiation at wavelengths suitable for the excitation of evaluated dye (see support information) with a total fluence rate of 1.196 W/sr·m^2 (measured with a pr-650 spectrascan spectroradiometer, Photo Research Inc., Chatsworth, CA, USA). During the photocytotoxicity treatment, the device was placed over the culture cell plates supported by a closed system at a distance of 12 cm. The maximum temperature of the exposure of the cells was 37 °C. After this irradiation, cells were incubated for an additional 24 h, making up a total of 72 h incubation and exposure to the test solutions. To check the validity of the light source, the squaraine dye 4, which was previously described with relevant photodynamic activity, was used as a positive control. A photocytotoxicity assay was performed in quadruplicate, and at least two independent assays were achieved.

Data set [2] is described as follows: MTT cell viability assay, Caco-2. It is filed as cell-based, human. To be noted: human, Caco-2, Caco-2 versus NHDF, 72 h; read-out: SI Caco-2 (selectivity index, cancer versus NHDF). The procedure:
as §1, §2

Data set [3] relates to Caco-2 colorectal adenocarcinoma cell line. Put plainly: MTT cell viability assay, Caco-2. The class given is cell-based, human. To be noted: Homo sapiens, Caco-2, 72 h. The procedure:
as §1, §2

Data set [4] can be described thus: Photostability evaluation in PBS (absorbance decay at 376 nm). It is filed as physicochemical. As to conditions: 10 µM in PBS. The procedure: The photostability of the dye 12 was evaluated using a concentration of 10 µM prepared from the dilution of 10 mM DMSO stock solution in PBS. In a 96-well plate, 100 µL of dye solution was added, irradiated in the same way as that previously described for photocytotoxicity evaluation for 120 min, and spectrophotometric readings were taken over this period at the dye 12’s maximum absorption wavelength (376 nm). Two independent experiments were performed in quadruplicate. The absorbance was normalised to simplify the analysis.

The subject of the next data set is Caco-2 cells. Nature of the data set: Morphological analysis by inverted microscopy. To be noted: 72 h, 20 or 40× magnification, versus untreated cells. The class given is cell-based, human. As to the method: After the near confluency of the culture, trypsinisation, and counting, Caco-2 cells were seeded (3 mL; 3 × 10^4 cells/mL) in 35 mm cell culture dishes with treatment for the tissue culture. Following 48 h of adherence, the cells were treated with the test solutions and incubated for 72 h in an environment protected from light. At every 24 h, cellular morphology was verified in an Olympus CKX41 SF inverted microscope with a 10, 20, or 40× objective, and the analysis was based on comparing the cells with and without treatment. Cell imaging was captured using a DC6V Olympus digital camera coupled to the microscope.

Data set [5] in a line: MTT cell viability assay, NHDF. The class given is cell-based, human. To be noted: human, normal human dermal fibroblasts (NHDF), single concentration of 10 µM, 72 h, mean ± SD; read-out: cell viability percentage in relation with control, NHDF. As to the method:
as §1, §2

Data set [6] has as its system normal human dermal fibroblasts (NHDF). Put plainly: MTT cell viability assay, NHDF. It is filed as cell-based. To be noted: Homo sapiens, NHDF, 72 h, 72 h of incubation, MTT, protected from light. The procedure:
as §1, §2

For orientation: viability means the share of living cells, or the viability signal relative to a control. By IC50 is commonly meant the concentration needed to halve the response being measured. High values mean a need for much substance, low ones inhibition by little substance.

Consider `CN1C(=Cc2oc3ccccc3[n+]2C)Oc2ccccc21.Cc1ccc(S(=O)(=O)[O-])cc1` [Dye 12, 3-Methyl-2-((3-methylbenzo[d]oxazol-2(3H)-ylidene)methyl)benzo[d]oxazol-3-ium 4-methylbenzenesulfonate], for which the viability at 10 µM in data set [1] (Homo sapiens, 72 h, single concentration of 10 µM, 72 h, mean ± SD, read-out: cell viability percentage in relation with control, PC-3) was 9.33 ± 4.28%; in data set [3] (single concentration of 10 µM, 72 h, mean ± SD, read-out: cell viability percentage in relation with control, Caco-2), 10 ± 0.93%. The IC50 in data set [1] (Homo sapiens, 72 h of incubation, MTT, protected from light) came out at 4.53 µM; in data set [3] (72 h of incubation, MTT, protected from light), 670 nM; in data set [6] it was 14 µM. Besides, in data set [1] (PC-3 versus NHDF, 72 h), the “SI PC-3 (selectivity index, cancer versus NHDF)” value is given as 3.1. Further, in the data set with NHDF cell line, the “photocytotoxicity (irradiation influence on cytotoxicity)” value was “total absence of photocytotoxicity”. In data set [2], the selectivity ratio at 72 h was 20.9. Moreover, the “decomposition (decrease in absorbance at 376 nm)” value in data set [4] (after 30 min of irradiation) was “approximately 4%”; in data set [4] (after 120 min of irradiation), roughly 5%. The “morphological changes of Caco-2 cells” value in the data set with Caco-2 cells (1 µM) is recorded as “no visible differences”; in the data set with Caco-2 cells (10 µM), “evident contraction”. Moreover, the viability at 72 h, 10 µM in data set [5] was 41 ± 0.82%.

For the origin of these results see PMC9503608, “An Insight into Symmetrical Cyanine Dyes as Promising Selective Antiproliferative Agents in Caco-2 Colorectal Cancer Cells” (Molecules, 2022).
